According to patent US20020160975A1, “Conserved XIAP-interaction motif in caspase-9 and Smac/DIABLO for mediating apoptosis” (Thomas Jefferson University, priority 2001, published 2002):
Blank lines part the entries; values can stand above or below the molecule they belong to. Ends that are not written are not given here.

Tests used:
[1] = molecular target: T1, isolated BIR3 domain of XIAP (Homo sapiens, UniProt P98170); experiment: In vitro interaction assay of GST fusion proteins with 35S-labeled BIR3; type: binding; details: C-terminal GST fusion proteins immobilized onto glutathione-affinity resin
T1 construct: full length XIAP or the isolated BIR3 domain of XIAP; made in house; host or cells: in vitro translation (cell-free)
Text: (§1) The C-terminal GST fusion proteins were expressed in bacteria and then immobilized onto glutathione-affinity resin. […] The caspase-9 deletion mutants used in these studies are represented by bar diagrams above the panel in FIG. 10.

[2] = molecular target: T2, Smac/DIABLO binding to BIR3 (Homo sapiens, UniProt P98170); experiment: In vitro binding of BIR3 to immobilized Smac-GST with or without competing peptide; details: 200 μM peptide; Smac-GST immobilized onto glutathione resin
T2 construct: Smac-GST was immobilized onto glutathione resin and then incubated with BIR3

XIAP [3] = molecular target: T3, XIAP (Homo sapiens, UniProt P98170); experiment: Cytochrome c-dependent caspase-3 activation in 293T S100 extracts containing XIAP (DEVD-AMC); type: biochemical; details: 25, 100 and 500 μM peptide, XIAP 10 nM, cytochrome c and dATP
T3 construct: made in house; host or cells: in vitro translation (cell-free)
Protocol: The activity of caspase-3 in the S100 extracts was measured using the peptide substrate DEVD-AMC.

full length XIAP = molecular target: T4, full length XIAP (Homo sapiens, UniProt P98170); experiment: In vitro interaction assay of GST fusion proteins with 35S-labeled XIAP; type: binding; details: C-terminal GST fusion proteins immobilized onto glutathione-affinity resin
T4 construct: full length XIAP or the isolated BIR3 domain of XIAP; made in house; host or cells: in vitro translation (cell-free)
Text: as §1

[4] = molecular target: T5, caspase-9-p12 binding to BIR3 (Homo sapiens, UniProt P98170); experiment: In vitro binding of BIR3 to immobilized p12-GST with or without competing peptide; details: 200 μM peptide; p12-GST immobilized onto glutathione resin
T5 construct: made in house; host or cells: bacteria (GST fusion)
Protocol: as §1
The interactions were analyzed as in Example 3.

procaspase-3 C163A = experiment: Procaspase-3 processing and DEVD-AMC cleavage by caspase-9 reconstituted with Apaf-1; type: biochemical; details: 20 nM each with purified Apaf-1; cytochrome c and dATP
Protocol: Procaspase-3 processing assays were generally performed as described in Srinivasula, S. M. et al. J Biol Chem 275:36152-36157, 2000. In this assay, purified recombinant procaspase-3 C163A was incubated with equal amounts of recombinant WT or triple mutant caspase-9 protein (20 nM) in the presence (+) or absence (−) of recombinant Apaf-1 (20 nM). The reaction mixtures were stimulated with cytochrome c (50 ng/μl) and dATP (1 mM), incubated for 0-60 minutes at 30° C., and then analyzed by SDS-PAGE and western blot analysis (FIG. 3).
Caspase-3 enzymatic assays with the tetrapeptide substrate DEVD-AMC were generally performed as described in Srinivasula, S. M. et al. J Biol Chem 275:36152-36157, 2000. In this caspase-3 enzymatic assay, caspase-9-depleted S100 extracts from Apaf-1-deficient mouse embryonic fibroblasts were incubated with equal amounts of recombinant WT and triple mutant caspase-9 proteins together with Apaf-1, cytochrome c and dATP. The controls used in these assays represent WT and triple mutant caspase-9 proteins incubated as above without cytochrome c and dATP. The reactions were carried out in the presence of 100 μM of DEVD-AMC for 0-120 minutes, and substrate cleavage was measured by luminescence spectrometry using a Perkin Elmer Luminescence spectrometer and represented in arbitrary spectrometric units.

[5] = molecular target: T6, X-linked inhibitor of apoptosis protein (XIAP), full length (UniProt P98170 1-497); experiment: gel filtration on Superose 6 and immunoblot of fractions
T6 construct: Used as in vitro translated 35S-labeled full length XIAP (pull-down, Far western) or as purified XIAP (holoenzyme experiments); also called full length XIAP; 35S-labeled XIAP
Protocol: After incubation, the reaction mixtures were diluted with oligomerization buffer I, and aliquots of each sample (100 μl) were loaded onto a Superose 6 FPLC column.
Samples were then analyzed by SDS-PAGE and autoradiography.

XIAP [6] = molecular target: T3, XIAP; experiment: Far Western blot analysis with 35S-labeled XIAP; type: binding
Protocol: Recombinant WT caspase-9, E306/D315/D330A, D315/330A, or D315A caspase-9 mutants, p12, p10, or Smac/DIABLO GST-fusion proteins were fractionated by SDS-PAGE and then blotted onto a nitrocellulose membrane using standard Western blotting technique. The proteins on the nitrocellulose membrane were denatured in a buffer (10 mM sodium phosphate pH 7.4, 150 mM sodium chloride, 5 mM magnesium chloride and 1 mM DTT) containing 6 M guanidine-HCl. These proteins were then renatured by gradual reduction of guanidine-HCl to 0.3 M. The membrane was blocked overnight in the same buffer containing 5% non-fat dry milk. The membrane was then probed with ^35S-labeled in vitro translated XIAP in the same buffer with 1% non-fat dry milk. The membrane was washed at least three times and then exposed to X-ray film.

XIAP-BIR3 = molecular target: T7, XIAP-BIR3 (Homo sapiens, UniProt P98170); experiment: DEVD-AMC cleaving activity in caspase-9-depleted S100 extracts with or without XIAP-BIR3; type: biochemical; details: 10 nM caspase-9 protein; XIAP-BIR3 20 nM; DEVD-AMC 100 μM; 30 minutes
T7 construct: purified XIAP-BIR3 (20 nM)
Protocol: To test for enzymatic activity, caspase-9-depleted S100 extracts (20 μg) from Apaf-1-deficient mouse embryonic fibroblasts were incubated with recombinant Apaf-1, cytochrome c, dATP, and equal amounts (10 nM) of WT caspase-9 or the caspase-9 Δlinker mutant protein in the presence (+) or absence (−) of purified XIAP-BIR3 (20 nM). The reactions were carried out in the presence of the peptide substrate DEVD-AMC (100 μM) for 30 minutes, and substrate cleavage was measured by luminescence spectrometry.
To test for enzymatic activity, caspase-9-depleted S100 extracts (20 μg) from Apaf-1-deficient mouse embryonic fibroblasts were incubated with recombinant Apaf-1, cytochrome c, dATP, and equal amounts (10 nM) of WT caspase-9, caspase-9 AT316, 317SG, or AT316, 317GG mutant proteins in the presence (+) or absence (−) of purified XIAP-BIR3 (20 nM). The reactions were carried out in the presence of the peptide substrate DEVD-AMC (100 μM) for 30 minutes, and substrate cleavage was measured by luminescence spectrometry.

T3 sequence (P98170 whole entry): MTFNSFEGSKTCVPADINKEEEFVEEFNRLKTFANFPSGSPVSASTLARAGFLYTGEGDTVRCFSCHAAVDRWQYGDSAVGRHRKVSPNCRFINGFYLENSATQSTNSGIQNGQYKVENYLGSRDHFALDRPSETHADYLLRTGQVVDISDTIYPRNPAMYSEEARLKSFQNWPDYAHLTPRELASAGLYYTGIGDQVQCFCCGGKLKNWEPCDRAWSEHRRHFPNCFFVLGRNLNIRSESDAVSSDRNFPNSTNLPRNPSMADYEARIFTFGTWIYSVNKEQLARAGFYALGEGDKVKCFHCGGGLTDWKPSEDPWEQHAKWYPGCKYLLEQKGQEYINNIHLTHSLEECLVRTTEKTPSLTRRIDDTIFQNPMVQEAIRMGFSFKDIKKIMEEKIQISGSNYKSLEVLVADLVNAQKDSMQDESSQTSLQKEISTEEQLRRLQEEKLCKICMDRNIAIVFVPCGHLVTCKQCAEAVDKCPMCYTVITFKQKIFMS
T6 sequence (P98170 whole entry): as above
T4 sequence (P98170 whole entry, the tested form may be a part): as the sequence (P98170 whole entry) above
T7 sequence (P98170 238-358 limits assumed): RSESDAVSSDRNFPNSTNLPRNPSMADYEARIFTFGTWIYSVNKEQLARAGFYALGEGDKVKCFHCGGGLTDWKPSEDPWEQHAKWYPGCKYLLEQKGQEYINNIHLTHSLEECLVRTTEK
T1 sequence (P98170 238-358 limits assumed): as above
T5 sequence (P98170 238-358 limits assumed): as above
T2 sequence (P98170 238-358 limits assumed): as above

Molecule: ATPFQEGLRTFDQLD [linker peptide]
- interaction with isolated BIR3 domain of XIAP [1]: able to interact
- inhibition of Smac/DIABLO binding to BIR3 [2]: completely inhibited
- promoting caspase-3 activation in XIAP containing extracts (XIAP [3]): as effective in promoting caspase-3 activation as the Smac-N5 or N7 peptides
- interaction with full length XIAP (full length XIAP): able to interact

- inhibition of binding of caspase-9-p12 to BIR3 [4]: completely inhibited
Molecule: AVPIAQK [Smac-N7, AVPIAQK]

- binding result [5]: no binding
- binding of XIAP by Far Western (XIAP [6]; proteins on nitrocellulose membrane, denatured and renatured): not able to bind
B1: triple mutant procaspase-9 (E306/D315/D330A) (enzyme)
chain: MDEADRRLLRRCRLRLVEELQVDQLWDALLSRELFRPHMIEDIQRAGSGSRRDQARQLIIDLETRGSQALPLFISCLEDTGQDMLASFLRTNRQAAKLSKPTLENLTPVVLRPEIRKPEVLRPETPRPVDIGSGGFGDVGALESLRGNADLAYILSMEPCGHCLIINNVNFCRESGLRTRTGSNIDCEKLRRRFSSLHFMVEVKGDLTAKKMVLALLELAQQDHGALDCCVVVILSHGCQASHLQFPGAVYGTDGCPVSVEKIVNIFNGTSCPSLGGKPKLFFIQACGGEQKDHGFEVASTSPEDASPGSNPEPAATPFQEGLRTFDQLAAISSLPTPSDIFVSYSTFPGFVSWRDPKSGSWYVETLDDIFEQWAHSEDLQSLLLRVANAVSVKGIYKQMPGCFNFLRKKLFFKTS
notes: Unprocessed protein; also called uncleavable caspase-9; mutant caspase-9
- processing procaspase-3 C163A or inducing DEVD-AMC cleavage (procaspase-3 C163A): as efficient as the fully processed WT caspase-9

B2: Δlinker: caspase-9 with residues 316 to 330 of SEQ ID NO:1 deleted (protein, listed as Homo sapiens)
chain: MDEADRRLLRRCRLRLVEELQVDQLWDALLSRELFRPHMIEDIQRAGSGSRRDQARQLIIDLETRGSQALPLFISCLEDTGQDMLASFLRTNRQAAKLSKPTLENLTPVVLRPEIRKPEVLRPETPRPVDIGSGGFGDVGALESLRGNADLAYILSMEPCGHCLIINNVNFCRESGLRTRTGSNIDCEKLRRRFSSLHFMVEVKGDLTAKKMVLALLELAQQDHGALDCCVVVILSHGCQASHLQFPGAVYGTDGCPVSVEKIVNIFNGTSCPSLGGKPKLFFIQACGGEQKDHGFEVASTSPEDESPGSNPEPDAISSLPTPSDIFVSYSTFPGFVSWRDPKSGSWYVETLDDIFEQWAHSEDLQSLLLRVANAVSVKGIYKQMPGCFNFLRKKLFFKTS
- enzymatic activity (DEVD-AMC cleaving) in presence of XIAP-BIR3 (XIAP-BIR3): did not inhibit enzymatic activity, even in the presence of XIAP-BIR3
- ability to interact with BIR3 (Far western, FIG. 12B) (XIAP [6]; recombinant caspase-9 mutants): lost significantly the ability to interact
